In patent US10030016B2 (Sunesis Pharmaceuticals, Inc., priority 2009, dated 2018):
pEC50, pIC50: −log10 of the molar value. Where a name gives a salt, the structure may show the parent alone. Read-outs that look alike come from different tables or passages of the source.

Assays:
[1] = tested on: phospho-akt (Thr308) in PC-3 cells; assay: Inhibition of phospho-akt (Thr308) in PC-3 cells, MSD phospho-akt 308 ELISA kit; assay type: cell-based; settings: 2 hours, no serum, read-out: EC50
Method in brief: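 Read-out is MSD electrochemiluminescence of Akt phosphorylated at Thr308 in lysates of PC-3 cells treated 2 h with compound in serum-free medium. Wortmannin at 5 μM defined the low control and DMSO the high control.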

[2] = target: PDK1 (Homo sapiens (Human), UniProt O15530); assay: PDK1 kinase assay (coupled PDK1/AKT/FAM-crosstide assay, IMAP fluorescence polarization); assay type: biochemical
Method in brief: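 GST-tagged human PDK1 (aa 51-359, 0.75 nM) from insect cells activated unphosphorylated GST-AKT2 (aa 140-467–PIFtide fusion, 10 nM), which phosphorylated 100 nM FAM-crosstide; 40 μM ATP, pH 7.2 Tris/MgCl2, 30 min at 25° C. IMAP fluorescence polarization read-out; ΔmP versus compound concentration fitted with a 4-parameter curve.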

[3] = Homo sapiens, inhibition of P308 Akt in PC-3 cells, MSD
[4] = inhibition of phospo-PDK1 in vitro
[5] = Homo sapiens, inhibition of P308 Akt in PC-3 cells using MSD

Sequence of PDK1 (O15530 51-359): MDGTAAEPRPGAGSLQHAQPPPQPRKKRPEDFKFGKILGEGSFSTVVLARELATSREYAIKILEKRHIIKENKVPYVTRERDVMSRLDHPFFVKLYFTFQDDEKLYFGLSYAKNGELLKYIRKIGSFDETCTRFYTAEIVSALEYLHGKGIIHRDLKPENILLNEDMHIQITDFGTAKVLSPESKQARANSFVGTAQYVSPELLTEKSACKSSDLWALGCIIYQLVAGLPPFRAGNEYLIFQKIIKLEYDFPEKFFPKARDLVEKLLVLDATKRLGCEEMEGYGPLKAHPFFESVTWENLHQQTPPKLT

Structure (SMILES) | pEC50 [1, 3] | pIC50 [2, 4] | pEC50 [1, 5] | pIC50 ([2]; inhibition of PDK1 in vitro) | also measured
C[C@H](NC(=O)c1cnccc1NCc1ccc(-c2ccc3ncnc(N)c3c2)s1)c1ccc(F)c(F)c1 [Example 3.86] | < 5.00 | 5.30 to 6.00 |  |  | 
CC(C)c1ccc(NC(=O)c2cc(C(F)(F)F)cnc2NCc2ccc(-c3cnc4[nH]nc(N)c4c3)cc2)cc1 [Example 280, 2-(4-(3-amino-1H-pyrazolo [3,4-b]pyridin-5-yl)benzylamino)-N-(4-isopropylphenyl)-5-(trifluoromethyl)nicotinamide] |  |  | 5.00 to 6.00 | 6.00 to 7.00 | 
Nc1n[nH]c2ncc(-c3ccc(CNc4ncc(C(F)(F)F)cc4C(=O)Nc4ccc(F)cc4)cc3)cc12 [Example 38, 2-[4-(3-Amino-1H-pyrazolo[3,4-b]pyridin-5-yl)-benzylamino]-N-(4-fluoro-phenyl)-5-trifluoromethyl-nicotinamide] | > 6.00 | > 7.00 |  |  | 
C[C@H](NC(=O)c1nc(C#N)cnc1NCc1ccc(-c2cnc(N)c(CC3CCNC3)n2)cc1)c1ccc(F)c(F)c1 (stereo partly drawn) [Example 187, 3-[4-(5-Amino-6-pyrrolidin-3-ylmethyl-pyrazin-2-yl)-benzylamino]-6-cyano-pyrazine-2-carboxylic acid [(S)-1-(3,4-difluoro-phenyl)-ethyl]-amide] |  |  | > 6.00 | > 7.00 | 
Nc1ncnc2ccc(-c3ccc(CNc4nccnc4C(=O)Nc4ccc(F)c(F)c4)s3)cc12 [Example 3.72, 3-({[5-(4-aminoquinazolin-6-yl)thiophen-2-yl]methyl}amino)-N-(3,4-difluorophenyl)pyrazine-2-carboxamide (TFA salt)] | < 5.00 | < 5.30 |  |  | 
N#Cc1cnc(NCc2ccc(-c3ccc(N)nc3)cc2)c(C(=O)NCc2ccc(F)c(F)c2)c1 [Example 368, 2-(4-(6-aminopyridin-3-yl)benzylamino)-5-cyano-N-(3,4-difluorobenzyl) nicotinamide] |  |  | > 6.00 | > 7.00 | 
Nc1ncnc2ccc(-c3ccc(CNc4ncc(S(=O)(=O)N5CCCCC5)cc4C(=O)NCc4ccc(F)c(F)c4)s3)cc12 [Example 8.6.8, 2-(((5-(4-aminoquinazolin-6-yl)thiophen-2-yl)methyl)amino)-N-(3,4-difluorobenzyl)-5-(piperidin-1-ylsulfonyl) nicotinamide] | < 5.00 | 6.00 to 7.00 |  |  | 
CNc1ncc2cc(O[C@@H](C)CNc3ncc(C#N)cc3C(=O)N[C@@H](C)c3ccc(F)cc3)ccc2n1 [Example 253, 5-cyano-N-((S)-1-(4-fluorophenyl)ethyl)-2-((S)-2-(2-(methylamino)quinazolin-6-yloxy)propylamino)nicotinamide] |  |  | < 5.00 | 5.30 to 6.00 | 
Nc1ncnc2ccc(-c3ccc(CNc4nccc5c4C(=O)N(Cc4ccc(F)c(F)c4)CC5)s3)cc12 [Ex. 7.18, 8-({[5-(4-aminoquinazolin-6-yl)thiophen-2-yl]methyl}amino)-2-(3,4-difluorobenzyl)-3,4-dihydro-2,7-naphthyridin-1(2H)-one] | > 6.00 | > 7.00 |  |  | 
O=C(NCc1ccc(F)c(F)c1)c1cccnc1Nc1cccc(-c2cccc3c2CNC3=O)c1 [Example 17.1, N-(3,4-difluorobenzyl)-2-(3-(1-oxoisoindolin-4-yl)phenylamino)-nicotinamide] | < 5.00 | 6.00 to 7.00 |  |  | 
C[C@H](NC(=O)c1nc(C#N)cnc1NCc1ccc(-c2cnc3[nH]nc(N(C)C)c3c2)cc1)c1ccc(F)c(F)c1 [Example 62, (S)-6-cyano-N-(1-(3,4-difluorophenyl)ethyl)-3-(4-(3-(dimethylamino)-1H-pyrazolo[3,4-b]pyridin-5-yl)benzylamino)pyrazine-2-carboxamide] |  |  | > 6.00 | > 7.00 | 
Cn1ccc(Nc2ncnc3ccc(-c4ccc(CNc5ncccc5C(=O)NCc5ccc(F)c(F)c5)s4)cc23)n1 [Example 2.34, N-(3,4-difluorobenzyl)-2-(((5-(4-(1-methyl-1H-pyrazol-3-ylamino)quinazolin-6-yl)thiophen-2-yl)methyl)amino) nicotinamide] | < 5.00 | < 5.30 |  |  | 
CC(C)(N)COc1nc(-c2ccc(CNc3ncc(C(F)(F)F)cc3C(=O)Nc3ccc(F)cc3)cc2)cnc1N [Example 200, 2-{4-[5-Amino-6-(2-amino-2-methyl-propoxy)-pyrazin-2-yl]-benzylamino}-N-(4-fluoro-phenyl)-5-trifluoromethyl-nicotinamide] |  |  | 5.00 to 6.00 | > 7.00 | 
CCC(=O)Nc1cnc(NCc2ccc(-c3ccc4ncnc(N)c4c3)s2)c(C(=O)NCc2ccc(F)c(F)c2)c1 [Example 8.5.2, 2-({[5-(4-aminoquinazolin-6-yl)thiophen-2-yl]methyl}amino)-N-(3,4-difluorobenzyl)-5-(propanoylamino)pyridine-3-carboxamide] | 5.00 to 6.00 | > 7.00 |  |  | 
C[C@H](NC(=O)c1cc(C#N)cnc1N[C@H](C)c1ccc(-c2cnc3[nH]nc(N)c3c2)cc1)c1ccc(F)cc1 [Example 423, 2-{(R)-1-[4-(3-Amino-1H-pyrazolo[3,4-b]pyridin-5-yl)-phenyl]-ethylamino}-5-cyano-N-[(S)-1-(4-fluoro-phenyl)-ethyl]-nicotinamide] |  |  | > 6.00 | > 7.00 | 
CC(C)Nc1ncnc2ccc(-c3ccc(CNc4ncccc4C(=O)NCc4ccc(F)c(F)c4)s3)cc12 [Example 4.12, N-(3,4-difluorobenzyl)-2-(((5-(4-(isopropylamino)quinazolin-6-yl)thiophen-2-yl)methyl)amino)nicotinamide] | 5.00 to 6.00 | > 7.00 |  |  | 
C[C@H](NC(=O)c1nc(C#N)cnc1NCC1CCC(c2cnc3[nH]nc(N)c3c2)CC1)c1ccc(F)c(F)c1 (stereo partly drawn) [Example 60, (S)-3-((4-(3-amino-1H-pyrazolo[3,4-b]pyridin-5-yl)cyclohexyl)methylamino)-6-cyano-N-(1-(3,4-difluorophenyl)ethyl)pyrazine-2-carboxamide] |  |  | > 6.00 | > 7.00 | 
O=C(NCc1ccc(F)c(F)c1)c1cccnc1NCc1ccc(-c2c[nH]c3ncccc23)s1 [Example 1.17, 2-(((5-(1H-pyrrolo[2,3-b]pyridin-3-yl)thiophen-2-yl)methyl)amino)-N-(3,4-difluorobenzyl)nicotinamide] |  | 6.00 to 7.00 |  |  | pEC50 ([1]; Homo sapiens, PC-3, 2 h, inhibition of P308 Akt in PC-3 cells, MSD): < 5.00
Cn1cc(-c2ccc(CNc3ncc(C(F)(F)F)cc3C(=O)NCc3ccc(F)c(F)c3)cc2)c2c(N)ncnc21 [Example 331, 2-(4-(4-amino-7-methyl-7H-pyrrolo[2,3-d]pyrimidin-5-yl)-benzylamino)-N-(3,4-difluorobenzyl)-5-(trifluoromethyl)nicotinamide] |  |  | > 6.00 | > 7.00 | 
Cc1nc(/C=C2\C(=O)Nc3cc(/C=C/CNc4ncccc4C(=O)NCc4ccc(F)c(F)c4)ccc32)c[nH]1 [Example 15.8, N-(3,4-Difluoro-benzyl)-2-((E)-3-{3-[1-(2-methyl-1H-imidazol-4-yl)-meth-(Z)-ylidene]-2-oxo-2,3-dihydro-1H-indol-6-yl}-allylamino)-nicotinamide] | > 6.00 | > 7.00 |  |  | 
C[C@H](NC(=O)c1cc(C#N)cnc1NCc1ccc(-c2cnc(N)cn2)c(F)c1)c1ccc(F)cc1 [Example 131, (S)-2-(4-(5-aminopyrazin-2-yl)-3-fluorobenzylamino)-5-cyano-N-(1-(4-fluorophenyl)ethyl) nicotinamide] |  |  | 5.00 to 6.00 | > 7.00 | 
CCC(C)NS(=O)(=O)c1cnc(NCc2ccc(-c3ccc4ncnc(N)c4c3)s2)c(C(=O)NC)c1 (stereo not drawn) [Example 8.6.17, 2-(((5-(4-aminoquinazolin-6-yl)thiophen-2-yl)methyl)amino)-5-(N-sec-butylsulfamoyl)-N-methylnicotinamide] | 5.00 to 6.00 | < 5.30 |  |  | 
CC(C)[C@H](NC(=O)c1cccnc1NCc1ccc(-c2ccc3ncnc(N)c3c2)s1)c1ccc(F)cc1 [Example 3.45, (S)-2-((5-(4-aminoquinazolin-6-yl)thiophen-2-yl)methylamino)-N-(1-(4-fluorophenyl)-2-methylpropyl)nicotinamide (TFA salt)] | 5.00 to 6.00 | 6.00 to 7.00 |  |  | 
Nc1ncnc2ccc(-c3ccc(CNc4ncccc4C(=O)NCc4ccc(F)cc4F)s3)cc12 [Example 3.8, 2-({[5-(4-aminoquinazolin-6-yl)thiophen-2-yl]methyl}amino)-N-(2,4-difluorobenzyl)pyridine-3-carboxamide (TFA salt)] | 5.00 to 6.00 | > 7.00 |  |  | 
O=C(NCc1ccc(F)c(F)c1)c1cccnc1NCc1cccc(-c2ccc3ncnc(NC4CC4)c3c2)c1 [Example 6.3, 2-(3-(4-(cyclopropylamino)quinazolin-6-yl)benzylamino)-N-(3,4-difluorobenzyl)-nicotinamide] | < 5.00 | > 7.00 |  |  | 
C[C@H](NC(=O)c1cc(C#N)cnc1N[C@H](C)c1ccc(-c2c[nH]c3ncnc(N)c23)cc1)c1ccc(F)cc1 [Example 432, 2-{(R)-1-[4-(4-Amino-7H-pyrrolo[2,3-d]pyrimidin-5-yl)-phenyl]-ethylamino}-5-cyano-N-[(S)-1-(4-fluoro-phenyl)-ethyl]-nicotinamide] |  |  | > 6.00 | > 7.00 | 
CC(N)CCc1nc(-c2ccc(CNc3ncc(C(F)(F)F)cc3C(=O)Nc3ccc(F)cc3)cc2)cnc1N (stereo not drawn) [Example 86, 2-{4-[5-Amino-6-(3-amino-butyl)-pyrazin-2-yl]-benzylamino}-N-(4-fluoro-phenyl)-5-trifluoro-methyl-nicotinamide] |  |  |  | > 7.00 | pEC50 ([1]; inhibition of P308 Akt in PC-3 cells using MSD): > 6.00
